Patent publication US20100159030A1, “METHODS FOR DETECTING AND MODULATING THE SENSITIVITY OF TUMOR CELLS TO ANTI-MITOTIC AGENTS AND FOR MODULATING TURMORGENICITY” (NewSouth Innovations Pty Limited, priority 2007, published 2010)
Read-outs that look alike come from different tables or passages of the source.

Legend:
H460 cells = test: Apoptosis induction, Annexin V-FITC flow cytometry; format: cell-based, Human; details: 48 h
Description: Annexin V-FITC staining followed by flow cytometry analysis was performed to address whether the increase in the sub-G1 population following exposure to tubulin-binding agents in the βIII-tubulin siRNA treated cells was related to an increase in apoptosis induction. Apoptosis induction was determined by transfecting H460 cells with siRNA for 72 h and harvesting (adherent and suspension) cells 48 h after drug treatment, as previously described in Pasquier et al., Mol Cancer Ther 2004; 3:1301-10. Briefly, 1×10^5 cells were incubated with Annexin V-FITC and propidium iodide for 15 min in the dark (Becton-Dickinson), immediately followed by flow cytometry using a FACSCalibur (Becton-Dickinson). Cytogram analysis was performed using CellQuest® software.

NSCLC H460 cells = test: Drug-treated clonogenic assay (surviving fraction, ID50) on siRNA/shRNA-transfected cells; format: cell-based, Human; details: for IC50: Homo sapiens; for change in drug sensitivity (clonogenic survival): H460
Summary of the method: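 Cells transfected with siRNA/shRNA for 24 h, plated (600 Calu-6 or 150 H460 cells/well) and after 4-6 h treated with anti-mitotic drugs for 72 h at 37 °C, then grown drug-free 7-10 days. Crystal-violet colonies counted; surviving fraction corrected for plating efficiency; ID50 = 50% colony reduction vs untreated, mean of ≥4 experiments.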

In the case of `CC(=O)O[C@H]1C(=O)[C@@]2(C)[C@H]([C@H](OC(=O)c3ccccc3)[C@]3(O)C[C@H](OC(=O)[C@H](O)[C@@H](NC(=O)c4ccccc4)c4ccccc4)C(C)=C1C3(C)C)[C@]1(OC(C)=O)CO[C@@H]1C[C@@H]2O` [Paclitaxel, paclitaxel], the “concentration from which apoptosis is induced” value (H460 cells; control siRNA treated cells) is reported as no less than 5 nM, the “concentration from which apoptosis is induced” value (H460 cells; βIII-tubulin siRNA treated cells) is reported as no less than 1 nM and the “percentage of apoptotic cells” value (H460 cells; βIII-tubulin siRNA vs control siRNA cells, paclitaxel 1, 2, 5 nM, cisplatin 0.4 or 1 μM) is reported as “significantly higher”. It also gave an IC50 (NSCLC H460 cells; NCI-H460, Table 2, 27-mer βIII siRNA Sequence-8 H460 cells, read-out: ID50 ± SEM) of 1.7 ± 0.043 nM, an IC50 (NSCLC H460 cells; NCI-H460, Table 2, 27-mer βIII siRNA Sequence-11 H460 cells, read-out: ID50 ± SEM) of 1.78 ± 0.07 nM and an IC50 (NSCLC H460 cells; NCI-H460, Table 2, Ctrl-1 (27-mer control siRNA) H460 cells, read-out: ID50 ± SEM) of 2.89 ± 0.165 nM. It also gave an IC50 (NSCLC H460 cells; NCI-H460, Table 2, mock-transfected H460 cells, read-out: ID50 ± SEM) of 2.63 ± 0.136 nM, an IC50 (NSCLC H460 cells; NCI-H460, Table 3, H460 Ctrl clone 1, read-out: Paclitaxel ID50 ± SEM) of 2.75 ± 0.131 nM and an IC50 (NSCLC H460 cells; NCI-H460, Table 3, H460 Ctrl clone 2, read-out: Paclitaxel ID50 ± SEM) of 2.83 ± 0.093 nM. For the same compound, the IC50 (NSCLC H460 cells; NCI-H460, Table 3, H460 βIII shRNA clone 4, read-out: Paclitaxel ID50 ± SEM) was 1.36 ± 0.087 nM, the IC50 (NSCLC H460 cells; NCI-H460, Table 3, H460 βIII shRNA clone 59, read-out: Paclitaxel ID50 ± SEM) was 1.78 ± 0.07 nM and the IC50 (NSCLC H460 cells; NCI-H460, Table 3, H460 βIII shRNA clone 60, read-out: Paclitaxel ID50 ± SEM) was 1.58 ± 0.095 nM. For the same compound, the “RS (relative sensitivity)” value (NSCLC H460 cells; Table 2, 27-mer βIII siRNA Sequence-8 H460 cells) was “(1.55, <0.0001***)”, the “RS (relative sensitivity)” value (NSCLC H460 cells; Table 2, 27-mer βIII siRNA Sequence-11 H460 cells) was “(1.42, 0.0001***)” and the “RS (relative sensitivity)” value (NSCLC H460 cells; Table 2, Ctrl-1 H460 cells) was “(0.91, NS)”. For the same compound, the “RS (relative sensitivity)” value (NSCLC H460 cells; Table 3, Ctrl clone 2 compared to ctrl clone 1) was “(0.97, NS)”, the “RS (relative sensitivity)” value (NSCLC H460 cells; Table 3, βIII shRNA clone 4 compared to ctrl clone 1) was “(2.03, <0.0001***)” and the “RS (relative sensitivity)” value (NSCLC H460 cells; Table 3, βIII shRNA clone 59 compared to ctrl clone 1) was “(1.55, <0.0001***)”. The “RS (relative sensitivity)” value (NSCLC H460 cells; Table 3, βIII shRNA clone 60 compared to ctrl clone 1) was “(1.74, <0.0001***)”, the “change in drug sensitivity (clonogenic survival)” value (from here on “change in drug sensitivity”) (NSCLC H460 cells; class II β-tubulin siRNA knockdown vs controls) was “did not significantly potentiate the cytotoxicity” and the “change in drug sensitivity” value (NSCLC H460 cells; class IVb β-tubulin siRNA knockdown vs controls) was “did not significantly enhance the cytotoxicity”. For the same compound, the “change in drug sensitivity” value (NSCLC H460 cells; βIII-tubulin siRNA silencing vs controls) was “significant increase in sensitivity”.
